System: Gambusia affinis
Test: Ichthyotoxicity against Gambusia affinis at 5 ppm
Format: organism-based
Conditions: in vivo; call rule not given here

`CC/C=C(\C)[C@H]1C(C)=CC(C)=C[C@]1(C)c1oc(OC)c(C)c(=O)c1C` was tested, and the Activity was “Active”.

With `C/C=C(\C)[C@H]1C(C)=C[C@@]2(C)[C@@H]1[C@]2(C)c1oc(OC)c(C)c(=O)c1C` the Activity was “Active”.

With `CC/C=C(\C)[C@H]1C(C)=C[C@@]2(C)[C@@H]1[C@]2(C)c1oc(OC)c(C)c(=O)c1C` [PHOTODEOXYTRIDACHIONE] the Activity was “Active”.

— ChEMBL document CHEMBL1149041, “Polypropionates from the Mediterranean Mollusk Elysia timida” (J Nat Prod, 1994)
